Assay results: ChEMBL document CHEMBL1121759, “Aporphines, 36. Dopamine receptor interactions of trihydroxyaporphines. Synthesis, radioreceptor binding, and striatal adenylate cyclase stimulation of 2,10,11-trihydroxyaporphines in comparison with other hydroxylated aporphines” (J Med Chem, 1981)
Calls of active or inactive are those of the source. No cut-off for these calls is given here.

molecular target: T1, Adenylate cyclase (Rattus norvegicus) (UniProt D4A3N4+P26770+Q04400+P26769+Q03343+P40146+Q8CFM9+P21932); experiment: Dopamine sensitive adenylate cyclase activity (stimulation) in homogenates of rat brain striatal tissue was assessed at 50 uM of compound; Inhibitis the cyclase activity; type: tissue-based

| Compound | Stimulation |
| --- | --- |
| Oc1ccc2c(c1O)-c1cccc3c1[C@@H](C2)N(CCCl)CC3 | inactive |

molecular target: T1, Adenylate cyclase (Rattus norvegicus); experiment: Dopamine sensitive adenylate cyclase activity (stimulation) in homogenates of rat brain striatal tissue was assessed at 50 uM of compound; +++ = 61-80% incresae of cAMP above basal activity; type: tissue-based

| Compound | Stimulation |
| --- | --- |
| CN1CCc2cccc3c2[C@H]1Cc1ccc(O)c(O)c1-3 | Partially active |
| CCCN1CCc2cccc3c2[C@H]1Cc1ccc(O)c(O)c1-3 (stereo in doubt; 1b) | Partially active |

molecular target: T1, Adenylate cyclase (Rattus norvegicus); experiment: Dopamine sensitive adenylate cyclase activity (stimulation) in homogenates of rat brain striatal tissue was assessed at 50 uM; + = <40% increase of cAMP above basal activity; type: tissue-based

| Compound | Stimulation |
| --- | --- |
| OCCN1CCc2cccc3c2[C@H]1Cc1ccc(O)c(O)c1-3 | Partially active |
| Oc1cc2c3c(c1)-c1c(ccc(O)c1O)C[C@H]3NCC2 | Partially active |
| CCN1CCc2cc(O)cc3c2[C@H]1Cc1ccc(O)c(O)c1-3 | Partially active |
| CCCN1CCc2cccc3c2[C@H]1Cc1cccc(O)c1-3 | Partially active |
| C=CCN1CCc2cc(O)cc3c2[C@H]1Cc1ccc(O)c(O)c1-3 | Partially active |
| CN1CCc2cccc3c2C1Cc1ccc(O)cc1-3 (stereo not drawn) | Partially active |
| C#CCN1CCc2cc(O)cc3c2[C@H]1Cc1ccc(O)c(O)c1-3 | Partially active |
| CCCN1CCc2cc(O)cc3c2[C@H]1Cc1ccc(O)c(O)c1-3 | Partially active |

molecular target: T1, Adenylate cyclase (Rattus norvegicus); experiment: Dopamine sensitive adenylate cyclase activity (stimulation) in homogenates of rat brain striatal tissue was assessed at 50 uM of compound; ++ = 41-60% incresae of cAMP above basal activity; type: tissue-based

| Compound | Stimulation |
| --- | --- |
| CCCN1CCc2cccc3c2[C@H]1Cc1ccc(O)c(O)c1-3 (stereo in doubt; 1c) | Active |
| CN1CCc2cc(O)cc3c2[C@H]1Cc1ccc(O)c(O)c1-3 | Active |
